The results in this text go back to patent US9963462B2 (priority 2015, dated 2018).

The IC50 is the concentration at which inhibition is half-maximal.

Assay [1] relates to BH4 levels in SK-N-BE (2) cells. Put plainly: SKN-N-BE (2) cellular assay, BH4 levels by LC-MS. The settings on record: Homo sapiens, SKNBE2, read-out: SK-N-BE(2) IC50, SK-N-BE (2) cells, BH4 levels by LC-MS. Format: cell-based.
Assay [2] concerns the target SNAP-hSPR (sepiapterin reductase, SPR) (Homo sapiens, UniProt P35270). Briefly: biochemical. In kind it is binding. The settings on record: terbium labelled SNAP-hSPR / SSZ labelled SNAP-EGFP; read-out: hTR-FRET IC50.
Text: TR-FRET Assay: A TR-FRET (homogeneous, time-resolved, fluorescence resonance energy transfer) assay was used to assess activity of compounds following standard assay conditions. […] Compounds were screened at different concentrations and IC50 values calculated.
Terbium labelled SNAP-hSPR and SSZ (sulfasalazine) labelled SNAP-EGFP were used as the protein pair in this assay. Compounds were screened at different concentrations, and 1050 and Kd values calculated.
Assay [3] has as its system BH4 production in human peripheral blood mononuclear cells (PBMCs). Briefly: hPBMC assay, inhibition of BH4 production by LC-MS (anti-CD3/anti-CD28 stimulated). Format: cell-based. As to conditions: PBMC, read-out: hPBMC IC50.

SNAP-hSPR (sepiapterin reductase, SPR), sequence (P35270 whole entry): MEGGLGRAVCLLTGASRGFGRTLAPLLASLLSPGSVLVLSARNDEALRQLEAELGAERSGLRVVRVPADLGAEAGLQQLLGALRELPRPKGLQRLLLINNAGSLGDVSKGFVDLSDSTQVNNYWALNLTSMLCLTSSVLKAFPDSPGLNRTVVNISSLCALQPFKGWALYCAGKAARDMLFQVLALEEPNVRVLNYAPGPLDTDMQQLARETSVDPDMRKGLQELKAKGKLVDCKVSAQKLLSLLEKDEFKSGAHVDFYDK

`Cc1c(C(=O)N2CCC(C(F)(F)F)CC2C)cnn1-c1nc2c(c(=O)[nH]1)CCC2` (stereo not drawn) [Q-0423]: the IC50 in assay [1] was found to be 100 nM; in assay [2], 5 nM; in assay [3], 410 nM.

Take `Cc1c(C(=O)N2CCC(C(F)(F)F)CC2)cnn1-c1nc2[nH]ccc2c(=O)[nH]1` [Q-0427]: the IC50 in assay [1] worked out at 3100 nM; in assay [2] it was 9 nM; in assay [3], 1100 nM.

Consider `Cc1c(C(=O)N2CCC(C3CC3)CC2)cnn1-c1nc2c(c(=O)[nH]1)CCC2` [Q-0451], for which the results for the IC50 in assay [1], in assay [2] and in assay [3] were 19 nM, 2 nM and 13 nM, respectively.

On to `O=C(c1cnn(-c2nc3c(c(=O)[nH]2)COC3)c1)N1CCC(C(F)(F)F)CC1` [Q-0453, 2-{4-[4-(trifluoromethyL)piperidine-1-carbonyl]-1H-pyrazol-1-yl}-3H,4H,5H,7H-furo[3,4-d]pyrimidin-4-one], for which the IC50 in assay [1] turned out to be 1600 nM; in assay [2], 6 nM; in assay [3], 1300 nM.

As to `O=C(c1cnn(-c2nn3cccc3c(=O)[nH]2)c1)N1CCC(C(F)(F)F)CC1` [Q-0467, 2-{4-[4-(trifluoromethyl)piperidine-1-carbonyl]-1H-pyrazol-1-yl}-3H,4H-pyrrolo[2,1f][1,2,4]triazin-4-one], the IC50 in assay [1] stood at 82 nM; in assay [2] it was 2 nM; in assay [3], 100 nM.

In the case of `Cc1c(C(=O)N2CCC(C)(C#N)CC2)cnn1-c1nc2c(c(=O)[nH]1)CCC2` [Q-0518], the results for the IC50 in assay [1], in assay [2] and in assay [3] were 500 nM, 3 nM and 32 nM, respectively.

On to `CCC1(C#N)CCN(C(=O)c2cnn(-c3nc4c(c(=O)[nH]3)CCC4)c2C)CC1` [Q-0519], for which the IC50 in assay [1] turned out to be 53 nM; in assay [2] it was 3 nM; in assay [3], 120 nM.

For `O=C(c1cnn(-c2nn3c(F)ccc3c(=O)[nH]2)c1)N1CCC(C(F)(F)F)CC1` [Q-0525, 7-fluoro-2-(4-(4-(trifluoromethyl)piperidine-1-carbonyl)-1H-pyrazol-1-yl)pyrrolo[1,2-f][1,2,4]triazin-4(3H)-one], the IC50 in assay [1] worked out at 19 nM; in assay [2], 1 nM; in assay [3], 24 nM.

On to `Cc1c(C(=O)N2CC[C@@H](N(C)C(=O)OC(C)(C)C)C2)cnn1-c1nc2c(c(=O)[nH]1)CCC2` [Q-0571], for which the IC50 is 73 nM in assay [1], 3 nM in assay [2] and 67 nM in assay [3].

`CCC(C#N)C1CCN(C(=O)c2cnn(-c3nc4c(c(=O)[nH]3)CCC4)c2C)CC1` (stereo not drawn) [Q-0572]: the IC50 in assay [1] is 36 nM; in assay [2], 2 nM; in assay [3] it was 24 nM.

`CCC1(C#N)CCN(C(=O)c2cnn(-c3nn4cccc4c(=O)[nH]3)c2C)CC1` [Q-0586]: the concentration for half-maximal inhibition (IC50) in assay [1] was found to be 200 nM; in assay [2] it was 2 nM; in assay [3] it was 130 nM.

For the compound `Cc1c(C(=O)N2CCC(S(=O)(=O)c3ccc(F)c(F)c3)CC2)cnn1-c1nn2cccc2c(=O)[nH]1` [Q-0591], the IC50 worked out at 100 nM in assay [1], 3 nM in assay [2] and 45 nM in assay [3].

`Cc1c(C(=O)N2CCC3(CC2)CC3)cnn1-c1nc2c(c(=O)[nH]1)CCC2` [Q-0635]: the IC50 in assay [1] turned out to be 100 nM; in assay [2], 2 nM; in assay [3], 54 nM.

For the compound `Cc1c(C(=O)N2CCC3(CC2)CC(F)(F)C3)cnn1-c1nn2cccc2c(=O)[nH]1` [Q-0690], the concentration for half-maximal inhibition (IC50) in assay [1] was determined as 200 nM; in assay [2], 2 nM; in assay [3] it was 72 nM.

Take `Cc1c(C(=O)N2CCN3CCC[C@@H]3C2)cnn1-c1nn2cccc2c(=O)[nH]1` [Q-0693]: the IC50 in assay [1] was 800 nM; in assay [2] it was 3 nM; in assay [3], 450 nM.

For `O=C(c1cnn(-c2nn3cccc3c(=O)[nH]2)c1)N1CCN2CCC[C@@H]2C1` [Q-0703], the IC50 in assay [1] was determined as 600 nM; in assay [2] it was 4 nM; in assay [3], 190 nM.

As to `Cc1c(C(=O)N2CCC(C(O)(C(F)(F)F)C(F)(F)F)CC2)cnn1-c1nn2cccc2c(=O)[nH]1` [Q-0721], the IC50 in assay [1] stood at 35 nM; in assay [2], 1 nM; in assay [3], 26 nM.

For `Cc1c(C(=O)N2CCN(CC(F)(F)F)CC2)cnn1-c1nc2c(c(=O)[nH]1)CCC2` [Q-0737], the IC50 worked out at 200 nM in assay [1], 5 nM in assay [2] and 37 nM in assay [3].

On to `Cc1c(C(=O)N2CCN(C(=O)OC(C)(C)C)CC2)cnn1-c1nn2cccc2c(=O)[nH]1` [Q-0750], for which the IC50 in assay [1] turned out to be 500 nM; in assay [2] it was 3 nM; in assay [3], 180 nM.

As for `Cc1c(C(=O)N2CCN(CC(F)(F)F)CC2)cnn1-c1nn2cccc2c(=O)[nH]1` [Q-0760], the IC50 in assay [1] turned out to be 400 nM; in assay [2], 1 nM; in assay [3], 75 nM.

As for `Cc1c(C(=O)N2CCC3(CC2)CC3(F)F)cnn1-c1nn2cccc2c(=O)[nH]1` [Q-0761], the IC50 in assay [1] worked out at 200 nM; in assay [2], 2 nM; in assay [3], 140 nM.

`Cc1c(C(=O)N2CCN(C3CC3)CC2)cnn1-c1nn2cccc2c(=O)[nH]1` [Q-0764]: the IC50 in assay [1] amounted to 300 nM; in assay [2], 2 nM; in assay [3], 100 nM.

As to `Cc1c(C(=O)N2CCC3(CC2)CN(C(=O)OC(C)(C)C)C3)cnn1-c1nn2cccc2c(=O)[nH]1` [Q-0768], the IC50 in assay [1] came to 200 nM; in assay [2], 2 nM; in assay [3], 45 nM.

For `Cc1c(C(=O)N2CC3(CCN(C(=O)OC(C)(C)C)CC3)C2)cnn1-c1nn2cccc2c(=O)[nH]1` [Q-0772], the half-maximal inhibitory concentration (IC50) in assay [1] was determined as 200 nM; in assay [2], 1 nM; in assay [3] it was 72 nM.

As to `CCC1(C#N)CCN(C(=O)c2nnn(-c3nn4cccc4c(=O)[nH]3)c2C)CC1` [Q-0777], the results for the 50% inhibitory concentration (IC50) in assay [1], in assay [2] and in assay [3] were 300 nM, 1 nM and 55 nM, respectively.

As for `Cc1c(C(=O)N2CCC(C(C)(O)C(F)(F)F)CC2)cnn1-c1nn2cccc2c(=O)[nH]1` (stereo not drawn) [Q-0782], the IC50 in assay [1] is 100 nM; in assay [2], 1 nM; in assay [3] it was 38 nM.

Regarding `Cc1c(C(=O)N2CCC(OCC(F)(F)F)CC2)cnn1-c1nn2cccc2c(=O)[nH]1` [Q-0784], the half-maximal inhibitory concentration (IC50) is 300 nM in assay [1], 1 nM in assay [2] and 120 nM in assay [3].

As to `Cc1c(C(=O)N2CC(F)(F)C2)cnn1-c1nn2cccc2c(=O)[nH]1` [Q-0789], the IC50 in assay [1] was determined as 2500 nM; in assay [2], 8 nM; in assay [3] it was 440 nM.

For the compound `Cc1c(C(=O)N2CCC2)cnn1-c1nn2cccc2c(=O)[nH]1` [Q-0794], the IC50 in assay [1] stood at 3500 nM; in assay [2], 10 nM; in assay [3], 410 nM.

On to `Cc1c(C(=O)N2C3CCC2CC(O)(c2ccccc2)C3)cnn1-c1nn2cccc2c(=O)[nH]1` (stereo not drawn) [Q-0797], for which the IC50 in assay [1] is 100 nM; in assay [2], 1 nM; in assay [3] it was 27 nM.

For `Cc1c(C(=O)N2CCC(C)(C#N)CC2)cnn1-c1nn2cccc2c(=O)[nH]1` [Q-0800], the IC50 was found to be 600 nM in assay [1], 2 nM in assay [2] and 47 nM in assay [3].

In the case of `Cc1c(C(=O)N2CC3CC(F)(F)C3C2)cnn1-c1nn2cccc2c(=O)[nH]1` (stereo not drawn) [Q-0804], the IC50 in assay [1] is 300 nM; in assay [2], 1 nM; in assay [3], 94 nM.

Regarding `Cc1c(C(=O)N2CC(N3CCC(F)(F)C3)C2)cnn1-c1nn2cccc2c(=O)[nH]1` [Q-0812], the 50% inhibitory concentration (IC50) in assay [1] was found to be 1000 nM; in assay [2], 3 nM; in assay [3], 150 nM.

For the compound `Cc1c(C(=O)N2CC3(CCCC3)C2)cnn1-c1nn2cccc2c(=O)[nH]1` [Q-0813], the IC50 in assay [1] came to 100 nM; in assay [2], 1 nM; in assay [3], 65 nM.

Consider `Cc1c(C(=O)N2CCC(O)(C3CC3)CC2)cnn1-c1nn2cccc2c(=O)[nH]1` [Q-0815], for which the results for the IC50 in assay [1], in assay [2] and in assay [3] were 100 nM, 1 nM and 72 nM, respectively.

Regarding `Cc1c(C(=O)N2CC3(C2)CC(F)(F)C3)cnn1-c1nn2cccc2c(=O)[nH]1` [Q-0816], the IC50 in assay [1] was 600 nM; in assay [2] it was 1 nM; in assay [3], 170 nM.

With `Cc1c(C(=O)N2CCC(C3(C#N)CC3)CC2)cnn1-c1nn2cccc2c(=O)[nH]1` [Q-0817], the IC50 in assay [1] is 200 nM; in assay [2], 1 nM; in assay [3], 44 nM.

Regarding `Cc1c(C(=O)N2CCN(C3CCC3)CC2)cnn1-c1nn2cccc2c(=O)[nH]1` [Q-0821], the IC50 in assay [1] was 100 nM; in assay [2], 1 nM; in assay [3] it was 51 nM.

`Cc1c(C(=O)N2CC3(CSC3)C2)cnn1-c1nn2cccc2c(=O)[nH]1` [Q-0822]: the IC50 in assay [1] turned out to be 400 nM; in assay [2] it was 2 nM; in assay [3], 130 nM.

Regarding `Cc1c(C(=O)N2CCC(CC#N)CC2)cnn1-c1nn2cccc2c(=O)[nH]1` [Q-0825], the values for the IC50 in assay [1], in assay [2] and in assay [3] were 400 nM, 2 nM and 150 nM, respectively.

Consider `Cc1c(C(=O)N2CCN(c3ccc(Cl)cn3)CC2)cnn1-c1nn2cccc2c(=O)[nH]1` [Q-0835], for which the results for the IC50 in assay [1], in assay [2] and in assay [3] were 100 nM, 2 nM and 39 nM, respectively.

As to `Cc1c(C(=O)N2CCN(c3ccc(C(F)(F)F)cn3)CC2)cnn1-c1nn2cccc2c(=O)[nH]1` [Q-0836], the IC50 in assay [1] turned out to be 300 nM; in assay [2], 5 nM; in assay [3], 52 nM.

`Cc1c(C(=O)N2CC3CCC(C2)C3(O)C(F)(F)F)cnn1-c1nn2cccc2c(=O)[nH]1` (stereo not drawn) [Q-0837]: the figures for the IC50 in assay [1], in assay [2] and in assay [3] were 200 nM, 1 nM and 63 nM, respectively.

On to `Cc1c(C(=O)N2CCC(C(C)C#N)CC2)cnn1-c1nn2cccc2c(=O)[nH]1` (stereo not drawn) [Q-0849], for which the figures for the IC50 in assay [1], in assay [2] and in assay [3] were 300 nM, 1 nM and 44 nM, respectively.
